Measurements as given in paper PMC7311426, “An amphipathic peptide with antibiotic activity against multidrug-resistant Gram-negative bacteria” (Nature Communications, 2020).
Read-outs that look alike come from different tables or passages of the source.

Assays:
Test in all cases: microbe, parasite or virus in culture
P. aeruginosa = details: Pseudomonas aeruginosa
Outline: (§1)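 MICs were scored by eye after 18-20 h static incubation at 37 °C, with bacteria at 5 × 10^5 CFU mL^−1 in MHB. Peptides were serially diluted 2-fold over 12 points, top 128 or 64 μg mL^−1. CAMHB (CLSI) and 1% agarose-MHB variants were also run, at least six replicates.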

S. aureus = test system: S. aureus
Outline: as §1

S. enterica Typhi = details: Salmonella enterica, ATCC14028 / TYPHI, read-out: BMD MIC
Outline: as §1

[1] = test system: A. baumannii clinical isolates
Outline: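 MIC90 from CLSI broth microdilution (M07-A9) in two clinical-isolate panels. US panel (331 isolates, 2010-2012): AA139 diluted in 0.01% acetic acid/0.1% BSA. Worldwide panel (445 isolates, 2011-2013, four regions): CAMHB, with 0.002% Tween 80 added for AA139 and polymyxin B.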

[2] = A. baumannii, worldwide isolates 2011-2013, n = 108

C[C@@H](O)[C@H]1C(=O)N2C(C(=O)O)=C(S[C@@H]3CN[C@H](C(=O)N(C)C)C3)[C@H](C)[C@H]12 [Meropenem, meropenem, reference compound]
4: Number of isolates with MIC 0.125 (MIC frequency distribution) [1]
10: Number of isolates with MIC 0.25 (MIC frequency distribution) ([1]; A. baumannii, worldwide isolates 2011-2013, n = 108, count of isolates at MIC 0.25)
1: Number of isolates with MIC 0.06 (MIC frequency distribution) ([1]; A. baumannii, worldwide isolates 2011-2013, n = 108, count of isolates at MIC 0.06) | Number of isolates with MIC 1 (MIC frequency distribution) ([1]; A. baumannii, worldwide isolates 2011-2013, n = 108, count of isolates at MIC 1) | Number of isolates with MIC 16 (MIC frequency distribution) ([1]; A. baumannii, worldwide isolates 2011-2013, n = 108, count of isolates at MIC 16)
> 16 µg/mL: MIC50 [1, 2] | MIC90 [1, 2] | MIC90 ([1]; Acinetobacter baumannii)
82: Number of isolates with MIC >16 (MIC frequency distribution) ([1]; A. baumannii, worldwide isolates 2011-2013, n = 108, count of isolates at MIC >16)
>16 µg/mL: MIC90 ([1]; US isolates 2010–2012, A. baumannii MDR, n = 19) | MIC90 ([1]; US isolates 2010–2012, A. baumannii XDR, n = 31)
0.12 µg/mL: MIC (P. aeruginosa; read-out: MIC, broth microdilution, P. aeruginosa UNT 138-1 spontaneous mutant, AA139 selection 4X, plate 1, colony 3, drug-free passage 5) | MIC (P. aeruginosa; read-out: MIC, broth microdilution, P. aeruginosa UNT 138-1 spontaneous mutant, AA139 selection 4X, plate 1, colony 4, drug-free passage 5) | MIC (P. aeruginosa; read-out: MIC, broth microdilution, P. aeruginosa UNT 138-1 spontaneous mutant, AA139 selection 4X, plate 1, colony 5, drug-free passage 1) | MIC (P. aeruginosa; read-out: MIC, broth microdilution, P. aeruginosa UNT 138-1 spontaneous mutant, AA139 selection 4X, plate 1, colony 5, drug-free passage 5) | MIC (P. aeruginosa; read-out: MIC, broth microdilution, P. aeruginosa UNT 138-1 spontaneous mutant, AA139 selection 4X, plate 1, colony 7, drug-free passage 5) | MIC (P. aeruginosa; read-out: MIC, broth microdilution, P. aeruginosa UNT 138-1 spontaneous mutant, AA139 selection 4X, plate 2, colony 2, drug-free passage 5) | MIC (P. aeruginosa; read-out: MIC, broth microdilution, P. aeruginosa UNT 138-1 spontaneous mutant, AA139 selection 4X, plate 2, colony 3, drug-free passage 1) | MIC (P. aeruginosa; read-out: MIC, broth microdilution, P. aeruginosa UNT 138-1 spontaneous mutant, AA139 selection 4X, plate 2, colony 3, drug-free passage 5) | MIC (P. aeruginosa; read-out: MIC, broth microdilution, P. aeruginosa UNT 138-1 spontaneous mutant, AA139 selection 4X, plate 2, colony 4, drug-free passage 1) | MIC (P. aeruginosa; read-out: MIC, broth microdilution, P. aeruginosa UNT 138-1 spontaneous mutant, AA139 selection 4X, plate 2, colony 4, drug-free passage 5) | MIC (P. aeruginosa; read-out: MIC, broth microdilution, P. aeruginosa UNT 138-1 spontaneous mutant, AA139 selection 4X, plate 2, colony 5, drug-free passage 5) | MIC (P. aeruginosa; read-out: MIC, broth microdilution, P. aeruginosa UNT 138-1 spontaneous mutant, AA139 selection 4X, plate 2, colony 6, drug-free passage 5) | MIC (P. aeruginosa; read-out: MIC, broth microdilution, P. aeruginosa UNT 138-1 spontaneous mutant, AA139 selection 4X, plate 2, colony 7, drug-free passage 5) | MIC (P. aeruginosa; read-out: MIC, broth microdilution, P. aeruginosa UNT 138-1 spontaneous mutant, AA139 selection 8X, plate 1, colony 2, drug-free passage 5) | MIC (P. aeruginosa; read-out: MIC, broth microdilution, P. aeruginosa UNT 138-1 spontaneous mutant, AA139 selection 8X, plate 1, colony 3, drug-free passage 1) | MIC (P. aeruginosa; read-out: MIC, broth microdilution, P. aeruginosa UNT 138-1 spontaneous mutant, AA139 selection 8X, plate 1, colony 3, drug-free passage 5) | MIC (P. aeruginosa; read-out: MIC, broth microdilution, P. aeruginosa UNT 138-1 spontaneous mutant, AA139 selection 8X, plate 1, colony 4, drug-free passage 1) | MIC (P. aeruginosa; read-out: MIC, broth microdilution, P. aeruginosa UNT 138-1 spontaneous mutant, AA139 selection 8X, plate 1, colony 4, drug-free passage 5) | MIC (P. aeruginosa; read-out: MIC, broth microdilution, P. aeruginosa UNT 138-1 spontaneous mutant, AA139 selection 8X, plate 2, colony 1, drug-free passage 5)
3: Number of isolates with MIC 2 (MIC frequency distribution) ([1]; A. baumannii, worldwide isolates 2011-2013, n = 108, count of isolates at MIC 2)
0.125 µg/mL: MIC (S. enterica Typhi)
0.06 µg/mL: MIC (P. aeruginosa; read-out: MIC, broth microdilution, P. aeruginosa UNT 138-1 spontaneous mutant, AA139 selection 4X, plate 1, colony 3, drug-free passage 1) | MIC (P. aeruginosa; read-out: MIC, broth microdilution, P. aeruginosa UNT 138-1 spontaneous mutant, AA139 selection 4X, plate 1, colony 4, drug-free passage 1) | MIC (P. aeruginosa; read-out: MIC, broth microdilution, P. aeruginosa UNT 138-1 spontaneous mutant, AA139 selection 4X, plate 1, colony 6, drug-free passage 1) | MIC (P. aeruginosa; read-out: MIC, broth microdilution, P. aeruginosa UNT 138-1 spontaneous mutant, AA139 selection 4X, plate 1, colony 7, drug-free passage 1) | MIC (P. aeruginosa; read-out: MIC, broth microdilution, P. aeruginosa UNT 138-1 spontaneous mutant, AA139 selection 4X, plate 2, colony 1, drug-free passage 1) | MIC (P. aeruginosa; read-out: MIC, broth microdilution, P. aeruginosa UNT 138-1 spontaneous mutant, AA139 selection 4X, plate 2, colony 1, drug-free passage 5) | MIC (P. aeruginosa; read-out: MIC, broth microdilution, P. aeruginosa UNT 138-1 spontaneous mutant, AA139 selection 4X, plate 2, colony 7, drug-free passage 1) | MIC (P. aeruginosa; read-out: MIC, broth microdilution, P. aeruginosa UNT 138-1 spontaneous mutant, AA139 selection 8X, plate 1, colony 1, drug-free passage 1) | MIC (P. aeruginosa; read-out: MIC, broth microdilution, P. aeruginosa UNT 138-1 spontaneous mutant, AA139 selection 8X, plate 1, colony 1, drug-free passage 5) | MIC (P. aeruginosa; read-out: MIC, broth microdilution, P. aeruginosa UNT 138-1 spontaneous mutant, AA139 selection 8X, plate 1, colony 2, drug-free passage 1) | MIC (P. aeruginosa; read-out: MIC, broth microdilution, P. aeruginosa UNT 138-1 spontaneous mutant, AA139 selection 8X, plate 1, colony 5, drug-free passage 1) | MIC (P. aeruginosa; read-out: MIC, broth microdilution, P. aeruginosa UNT 138-1 spontaneous mutant, AA139 selection 8X, plate 1, colony 5, drug-free passage 5) | MIC (P. aeruginosa; read-out: MIC, broth microdilution, P. aeruginosa UNT 138-1 spontaneous mutant, AA139 selection 8X, plate 2, colony 1, drug-free passage 1) | BMD MIC (S. aureus; S. aureus ATCC 25923 MSSA, CAMHB, mode of 6 replicates) | MIC (S. aureus; Staphylococcus aureus, ATCC25923 / MSSA, read-out: BMD MIC)
0.5 µg/mL: MIC (P. aeruginosa; read-out: MIC, broth microdilution, P. aeruginosa UNT 138-1 spontaneous mutant, AA139 selection 4X, plate 2, colony 5, drug-free passage 1) | MIC (P. aeruginosa; read-out: MIC, broth microdilution, P. aeruginosa UNT 138-1 spontaneous mutant, AA139 selection 4X, plate 2, colony 6, drug-free passage 1)
0: Number of isolates with MIC 0.03 (MIC frequency distribution) ([1]; A. baumannii, worldwide isolates 2011-2013, n = 108, count of isolates at MIC 0.03) | Number of isolates with MIC 32 (MIC frequency distribution) ([1]; A. baumannii, worldwide isolates 2011-2013, n = 108, count of isolates at MIC 32) | Number of isolates with MIC 64 (MIC frequency distribution) ([1]; A. baumannii, worldwide isolates 2011-2013, n = 108, count of isolates at MIC 64) | Number of isolates with MIC 128 (MIC frequency distribution) ([1]; A. baumannii, worldwide isolates 2011-2013, n = 108, count of isolates at MIC 128) | Number of isolates with MIC >32 (MIC frequency distribution) ([1]; A. baumannii, worldwide isolates 2011-2013, n = 108, count of isolates at MIC >32) | Number of isolates with MIC >128 (MIC frequency distribution) ([1]; A. baumannii, worldwide isolates 2011-2013, n = 108, count of isolates at MIC >128) | Number of isolates with MIC ≤0.015 (MIC frequency distribution) ([1]; A. baumannii, worldwide isolates 2011-2013, n = 108, count of isolates at MIC ≤0.015)
2: Number of isolates with MIC 0.5 (MIC frequency distribution) ([1]; A. baumannii, worldwide isolates 2011-2013, n = 108, count of isolates at MIC 0.5) | Number of isolates with MIC 4 (MIC frequency distribution) ([1]; A. baumannii, worldwide isolates 2011-2013, n = 108, count of isolates at MIC 4) | Number of isolates with MIC 8 (MIC frequency distribution) ([1]; A. baumannii, worldwide isolates 2011-2013, n = 108, count of isolates at MIC 8)
0.25 µg/mL: MIC (P. aeruginosa; read-out: MIC, broth microdilution, P. aeruginosa UNT 138-1 spontaneous mutant, AA139 selection 4X, plate 1, colony 6, drug-free passage 5) | MIC (P. aeruginosa; read-out: MIC, broth microdilution, P. aeruginosa UNT 138-1 spontaneous mutant, AA139 selection 4X, plate 2, colony 2, drug-free passage 1)
